Data set [1] has as its system LPS-stimulated RAW264.7 cell lines. The data set is described as follows: LPS-induced NO production (Griess) in RAW264.7. The data set is classed as cell-based, murine. As to conditions: for The production of NO: LPS-stimulated RAW264.7, LPS group 49.86 ± 0.62, control 1.20 ± 0.38. The method in brief: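 RAW 264.7 murine macrophages were seeded at 1 × 10^4 cells/well in 96-well plates and cultured overnight at 37 °C with 5% CO2, with dexamethasone as positive control. After 24 h, nitrite in 50 μL of supernatant was quantified by sequential 5-min room-temperature incubations with 50 μL Griess reagent A and then reagent B, reading absorbance at 540 nm.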
On the technique in general: Griess reagent forms a coloured azo dye with nitrite.

Another data set has as its system PC 12 cell line. The data set is described as follows: Cytotoxicity assay (CCK-8) on PC 12. The data set is classed as cell-based, rat. The note with it: 20 μM. As to the method:
RAW264.7 cells were cultured in 96-well plates at a density of 3 × 10^4 cells/mL in Dulbecco’s modified Eagle’s medium (DMEM, Gibco, Baltimore, MD, USA) with 10% fetal calf serum (Gibco, Baltimore, MD, USA), 100 U/mL penicillin, and 100 μg/mL streptomycin. Plates were incubated in an atmosphere containing 5% CO2 at […]. PC 12 cells were cultured in 96-well plates at a density of 8000 cells/mL in Dulbecco’s modified Eagle’s medium (DMEM, Gibco, Baltimore, MD, USA) with 10% fetal calf serum (Gibco, Baltimore, MD, USA), 100 U/mL penicillin, and 100 μg/mL streptomycin. Plates were incubated in an atmosphere containing 5% CO2 at 37 °C. Cells were treated with different concentrations of test compounds for 48 h. Then, 10 μL CCK-8 solution were added to all the wells. After 4 h incubation, the absorbance at 450 nm of each well was measured in a multiscan photometer.

A further data set concerns PC 12 cell lines. The data set is described as follows: Radiation protection in vitro (CCK-8). The data set is classed as cell-based, rat. The note with it: for viability at 5 µM / viability at 10 µM / viability at 20 µM: Rattus norvegicus, radiation 8.0 Gy, PC 12, radiation group 50.22 ± 1.08; for viability at 5 µM: PC-12, Dose 5 μM; for viability at 10 µM: PC-12, Dose 10 μM; for viability at 20 µM: PC-12, Dose 20 μM. As to the method: The rat adrenal pheochromocytoma cells (PC 12) were used for in vitro studies. A Cell Counting Kit-8 (CCK-8, Applygen Technologies Co., Ltd., Beijing, China) assay was used to determine cell viability. […] Cells were irradiated with dose of 8.0 Gy at a dose rate of 0.8 Gy/min. Then, 10 μL CCK-8 solution was added to all the wells. After 4 h incubation, the absorbance at 450 nm of each well was measured in a multiscan photometer.

Data set [2] is described as follows: Aqueous solubility determination by UV spectrophotometer. The data set is classed as physicochemical. The note with it: water, thermodynamic from solid, saturated solution concentration. As to the method: A UV spectrophotometer was used to test the aqueous solubility of target compounds. Each compound to be tested was prepared into solutions with concentrations of 0.2 M, 0.1 M, 0.05 M, 0.025 M, 0.0125 M, 0.00625 M, and 0.003125 M. The optical density (OD) values of the prepared solutions were measured using an ultraviolet spectrophotometer, and concentration–OD-value standard curves were drawn for each compound to be tested. The saturated solutions of the target compounds were diluted by 5000 times and detected using an ultraviolet spectrophotometer to measure the OD values, respectively. The measured OD values were substituted into the corresponding concentration-OD value standard curve to calculate the diluted concentrations, which were multiplied by 5000 to obtain the saturated solution concentrations of the target compounds.

The subject of data set [3] is H2O2-stimulated PC 12 cell lines. The experiment in a line: Protection against H2O2-induced oxidative damage (CCK-8). The note with it: for Cell viability: in % (unit assumed). The data set is classed as cell-based, rat. The method in brief:
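Rat PC 12 cells were plated in 96-well plates at 8000 cells/well and left to grow overnight. After a further 24 h incubation under the same conditions, each well received 10 μL CCK-8 solution. Following 2 h of incubation, absorbance at 450 nm was read on a microplate reader to measure cell viability.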

For data set [4] the following is noted: cited from earlier work.

In brackets after ≈: the same amount, converted by molar mass.

For orientation: viability means a read-out of living cells in per cent, often relative to untreated cells. The term solubility denotes the concentration that dissolves in the medium under given conditions. A high value points to a readily soluble substance. In general, aqueous solubility refers to how much of the substance goes into solution per volume.

As for `COc1ccc(/C=C/C(=O)CC(=O)/C=C/c2cc(CN(C)C)c(O)c(OC)c2)cc1OC` [Compound 5a], in data set [1] (10 μM), the “inhibitory activity against NO production compared with curcumin” value is “better inhibitory activity”. For the same compound, the “The production of NO” value in data set [1] (Dose 5 μM) was 33.90 ± 1.94; in data set [1] (Dose 10 μM) it was 15.60 ± 2.78; in data set [1] (Dose 15 μM), 9.88 ± 0.53. Besides, the “effect on PC 12 cell proliferation” value in the data set with PC 12 cell line is “significant promoting effect”. Also, in the data set with PC 12 cell lines (10 μM, irradiated PC 12), the “radiation protection capability compared with curcumin” value was “better radiation protection capability”. The radiation protection capacity entry in the data set on PC 12 cell lines (10 μM, versus radiation group) is “a certain degree of radiation protection capacity”. For the same compound, the viability at 5 µM with PC 12 cell lines stood at 58.2 ± 1.86%. In the data set with PC 12 cell lines, the viability at 10 µM came to 68.7 ± 5.9%. Also, the viability at 20 µM with PC 12 cell lines came out at 105 ± 5.01%. The solubility in data set [2] amounted to 118 mg/mL (≈ 268 mM). Moreover, the “anti-oxidant capacity compared with curcumin” value in data set [3] (10 μM, H2O2-stimulated PC 12) was “better anti-oxidant capacity”. In addition, the Cell viability in data set [3] (Dose 5 μM, H2O2-induced oxidative damage, PC 12, H2O2 group 49.69 ± 1.37, control 100) is on record as 75.15 ± 5.90; in data set [3] (Dose 10 μM, H2O2-induced oxidative damage, PC 12, H2O2 group 49.69 ± 1.37, control 100) it was 84.53 ± 2.36; in data set [3] (Dose 20 μM, H2O2-induced oxidative damage, PC 12, H2O2 group 49.69 ± 1.37, control 100), 106.17 ± 3.34. Besides, the “cell survival rate (anti-oxidant)” value in data set [3] (at 20 μM, H2O2-stimulated PC 12) amounted to 106%.

As to `COc1cc(/C=C/C(=O)CC(=O)/C=C/c2ccc(O)c(OC)c2)ccc1O` [Curcumin, curcumin, reference compound], the “The production of NO” value in data set [1] (Dose 5 μM) is reported as 37.00 ± 1.12; in data set [1] (Dose 10 μM) it was 21.55 ± 1.29; in data set [1] (Dose 15 μM), 5.96 ± 0.03. Moreover, the viability at 5 µM in the data set on PC 12 cell lines was determined as 55.1 ± 1.37%; in data set [3] (Rattus norvegicus, PC-12, Dose 5 μM, H2O2-induced oxidative damage, PC 12, H2O2 group 49.69 ± 1.37, control 100) it was 59.6 ± 2.21%. In addition, the viability at 10 µM was 59.39 ± 0.57% in the data set with PC 12 cell lines and 71.8 ± 1.52% in data set [3] (Rattus norvegicus, PC-12, Dose 10 μM, H2O2-induced oxidative damage, PC 12, H2O2 group 49.69 ± 1.37, control 100). Further, the viability at 20 µM with PC 12 cell lines is 75.47 ± 0.68%; in data set [3] (Rattus norvegicus, PC-12, Dose 20 μM, H2O2-induced oxidative damage, PC 12, H2O2 group 49.69 ± 1.37, control 100) it was 86.4 ± 1.28%. In data set [4], the aqueous solubility is on record as less than 0.1 mg/mL.

The values above are taken from publication PMC11085442 (Molecules, 2024).
